From ChEMBL document CHEMBL4229333, “Effects of rigidity on the selectivity of protein kinase inhibitors” (Eur J Med Chem, 2018)

Assays:
[1] = target: Serine/threonine-protein kinase TAO2 (Homo sapiens) (UniProt Q9UL54); assay: Inhibition of TAOK2 (unknown origin) at 1 uM by mobility shift microfluidics platform based assay relative to control
[2] = target: Glycogen synthase kinase-3 alpha (Homo sapiens) (UniProt P49840); assay: Inhibition of GSK-3-alpha (unknown origin) at 1 uM by mobility shift microfluidics platform based assay relative to control
[3] = target: Macrophage-stimulating protein receptor (Homo sapiens) (UniProt Q04912); assay: Inhibition of RON (unknown origin) at 1 uM by mobility shift microfluidics platform based assay relative to control
[4] = target: Calcium/calmodulin-dependent protein kinase type 1D (Homo sapiens) (UniProt Q8IU85); assay: Inhibition of CAMK1D (unknown origin) at 1 uM by mobility shift microfluidics platform based assay relative to control
[5] = target: Insulin-like growth factor 1 receptor (Homo sapiens) (UniProt P08069); assay: Inhibition of IGF1R (unknown origin) at 1 uM by mobility shift microfluidics platform based assay relative to control
[6] = target: Death-associated protein kinase 1 (Homo sapiens) (UniProt P53355); assay: Inhibition of DAPK1 (unknown origin) at 1 uM by mobility shift microfluidics platform based assay relative to control
[7] = target: Tyrosine-protein kinase ABL1 (Homo sapiens, UniProt P00519); assay: Inhibition of ABL1 (unknown origin) at 1 uM by mobility shift microfluidics platform based assay relative to control
[8] = target: MAP kinase-activated protein kinase 3 (Homo sapiens) (UniProt Q16644); assay: Inhibition of MAPKAPK3 (unknown origin) at 1 uM by mobility shift microfluidics platform based assay relative to control
MAP kinase-activated protein kinase 3 (Homo sapiens), sequence (Q16644 whole entry, looked up): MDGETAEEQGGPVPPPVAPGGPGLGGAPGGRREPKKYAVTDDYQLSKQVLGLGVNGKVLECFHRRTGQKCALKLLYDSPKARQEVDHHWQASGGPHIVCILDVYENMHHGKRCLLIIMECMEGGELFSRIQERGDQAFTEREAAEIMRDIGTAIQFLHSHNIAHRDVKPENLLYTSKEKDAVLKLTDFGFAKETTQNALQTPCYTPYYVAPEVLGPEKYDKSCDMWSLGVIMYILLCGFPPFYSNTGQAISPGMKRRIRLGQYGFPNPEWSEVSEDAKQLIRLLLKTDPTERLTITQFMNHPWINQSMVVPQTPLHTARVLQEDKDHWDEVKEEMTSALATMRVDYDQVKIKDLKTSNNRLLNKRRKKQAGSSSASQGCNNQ

[9] = target: Tyrosine-protein kinase JAK2 (Homo sapiens) (UniProt O60674); assay: Inhibition of JAK2 (unknown origin) at 1 uM by mobility shift microfluidics platform based assay relative to control
[10] = target: Serine/threonine-protein kinase Sgk2 (Homo sapiens) (UniProt Q9HBY8); assay: Inhibition of SGK2 (unknown origin) at 1 uM by mobility shift microfluidics platform based assay relative to control
[11] = target: RAC-gamma serine/threonine-protein kinase (Homo sapiens) (UniProt Q9Y243); assay: Inhibition of AKT3 (unknown origin) at 1 uM by mobility shift microfluidics platform based assay relative to control
RAC-gamma serine/threonine-protein kinase (Homo sapiens), sequence (Q9Y243 whole entry): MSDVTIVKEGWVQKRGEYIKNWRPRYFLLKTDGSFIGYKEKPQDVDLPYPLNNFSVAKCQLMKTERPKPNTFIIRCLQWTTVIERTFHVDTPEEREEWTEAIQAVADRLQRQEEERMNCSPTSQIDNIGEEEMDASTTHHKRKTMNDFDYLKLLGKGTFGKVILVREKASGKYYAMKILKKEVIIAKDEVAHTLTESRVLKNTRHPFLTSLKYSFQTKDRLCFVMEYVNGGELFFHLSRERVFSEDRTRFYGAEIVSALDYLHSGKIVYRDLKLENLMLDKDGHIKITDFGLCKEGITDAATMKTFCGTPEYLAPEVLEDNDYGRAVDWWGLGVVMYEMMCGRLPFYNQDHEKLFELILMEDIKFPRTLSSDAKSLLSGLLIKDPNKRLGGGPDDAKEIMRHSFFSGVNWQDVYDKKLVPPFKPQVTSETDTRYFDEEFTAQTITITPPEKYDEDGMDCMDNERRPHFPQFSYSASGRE

[12] = target: Mitogen-activated protein kinase 13 (Homo sapiens) (UniProt O15264); assay: Inhibition of P38-delta (unknown origin) at 1 uM by mobility shift microfluidics platform based assay relative to control
[13] = target: Phosphorylase b kinase gamma catalytic chain, skeletal muscle/heart isoform (Homo sapiens) (UniProt Q16816); assay: Inhibition of PHK-gamma1 (unknown origin) at 1 uM by mobility shift microfluidics platform based assay relative to control
[14] = target: Mitogen-activated protein kinase 10 (Homo sapiens) (UniProt P53779); assay: Inhibition of JNK3 (unknown origin) at 1 uM by mobility shift microfluidics platform based assay relative to control
[15] = target: Serine/threonine-protein kinase TAO3 (Homo sapiens) (UniProt Q9H2K8); assay: Inhibition of TAOK3 (unknown origin) at 1 uM by mobility shift microfluidics platform based assay relative to control
[16] = target: Calcium/calmodulin-dependent protein kinase type II subunit beta (Homo sapiens) (UniProt Q13554); assay: Inhibition of CAMK2B (unknown origin) at 1 uM by mobility shift microfluidics platform based assay relative to control
Calcium/calmodulin-dependent protein kinase type II subunit beta (Homo sapiens), sequence (Q13554 whole entry): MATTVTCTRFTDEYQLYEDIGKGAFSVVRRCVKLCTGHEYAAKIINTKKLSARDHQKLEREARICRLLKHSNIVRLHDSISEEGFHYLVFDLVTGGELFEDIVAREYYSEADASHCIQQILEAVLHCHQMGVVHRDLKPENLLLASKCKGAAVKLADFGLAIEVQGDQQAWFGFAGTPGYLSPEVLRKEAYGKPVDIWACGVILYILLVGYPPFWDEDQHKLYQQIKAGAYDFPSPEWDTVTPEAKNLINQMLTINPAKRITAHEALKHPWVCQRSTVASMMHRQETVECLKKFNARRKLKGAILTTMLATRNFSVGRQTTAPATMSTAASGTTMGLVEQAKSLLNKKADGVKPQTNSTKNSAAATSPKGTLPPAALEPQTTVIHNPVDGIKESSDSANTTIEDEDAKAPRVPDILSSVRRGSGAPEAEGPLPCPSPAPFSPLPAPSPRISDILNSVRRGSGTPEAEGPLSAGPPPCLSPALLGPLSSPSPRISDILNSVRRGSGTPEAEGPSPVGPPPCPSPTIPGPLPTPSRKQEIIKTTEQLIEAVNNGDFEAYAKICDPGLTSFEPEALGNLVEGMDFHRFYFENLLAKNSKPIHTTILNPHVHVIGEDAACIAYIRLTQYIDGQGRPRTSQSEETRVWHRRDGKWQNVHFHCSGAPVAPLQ

[17] = target: Mitogen-activated protein kinase 12 (Homo sapiens) (UniProt P53778); assay: Inhibition of P38-gamma (unknown origin) at 1 uM by mobility shift microfluidics platform based assay relative to control
[18] = target: Inhibitor of nuclear factor kappa-B kinase subunit beta (Homo sapiens) (UniProt O14920); assay: Inhibition of IKK-beta (unknown origin) at 1 uM by mobility shift microfluidics platform based assay relative to control
[19] = target: RAF proto-oncogene serine/threonine-protein kinase (Homo sapiens) (UniProt P04049); assay: Inhibition of CRAF (unknown origin) at 1 uM by mobility shift microfluidics platform based assay relative to control
[20] = target: Ephrin type-A receptor 2 (Homo sapiens) (UniProt P29317); assay: Inhibition of EPH-A2 (unknown origin) at 1 uM by mobility shift microfluidics platform based assay relative to control
[21] = target: Serine/threonine-protein kinase SIK2 (Homo sapiens) (UniProt Q9H0K1); assay: Inhibition of SNF1LK2 (unknown origin) at 1 uM by mobility shift microfluidics platform based assay relative to control
[22] = target: Serine/threonine-protein kinase MRCK alpha (Homo sapiens) (UniProt Q5VT25); assay: Inhibition of MRCK-alpha (unknown origin) at 1 uM by mobility shift microfluidics platform based assay relative to control
[23] = target: Serine/threonine-protein kinase 3 (Homo sapiens) (UniProt Q13188); assay: Inhibition of MST2 (unknown origin) at 1 uM by mobility shift microfluidics platform based assay relative to control
Serine/threonine-protein kinase 3 (Homo sapiens), sequence (Q13188 whole entry): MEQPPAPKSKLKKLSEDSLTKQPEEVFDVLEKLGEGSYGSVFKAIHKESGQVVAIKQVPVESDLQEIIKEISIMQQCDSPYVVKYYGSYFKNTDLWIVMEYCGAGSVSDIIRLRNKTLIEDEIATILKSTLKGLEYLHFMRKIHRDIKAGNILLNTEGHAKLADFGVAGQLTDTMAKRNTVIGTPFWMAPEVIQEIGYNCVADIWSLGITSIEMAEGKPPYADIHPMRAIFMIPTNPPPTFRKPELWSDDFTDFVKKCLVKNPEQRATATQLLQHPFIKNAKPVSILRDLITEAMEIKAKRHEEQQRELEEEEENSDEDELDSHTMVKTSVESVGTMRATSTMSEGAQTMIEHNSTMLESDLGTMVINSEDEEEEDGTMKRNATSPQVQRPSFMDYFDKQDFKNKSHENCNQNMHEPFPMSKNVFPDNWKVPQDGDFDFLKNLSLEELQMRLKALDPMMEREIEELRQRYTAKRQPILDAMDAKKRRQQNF

[24] = target: Serine/threonine-protein kinase LATS1 (Homo sapiens) (UniProt O95835); assay: Inhibition of LATS1 (unknown origin) at 1 uM by mobility shift microfluidics platform based assay relative to control
[25] = target: Serine/threonine-protein kinase PLK1 (Homo sapiens) (UniProt P53350); assay: Inhibition of PLK1 (unknown origin) at 1 uM by mobility shift microfluidics platform based assay relative to control
[26] = target: High affinity nerve growth factor receptor (Homo sapiens) (UniProt P04629); assay: Inhibition of TRKA (unknown origin) at 1 uM by mobility shift microfluidics platform based assay relative to control
[27] = target: Casein kinase I isoform epsilon (Homo sapiens) (UniProt P49674); assay: Inhibition of CK1-epsilon (unknown origin) at 1 uM by mobility shift microfluidics platform based assay relative to control
[28] = target: Rhodopsin kinase GRK7 (Homo sapiens) (UniProt Q8WTQ7); assay: Inhibition of GRK7 (unknown origin) at 1 uM by mobility shift microfluidics platform based assay relative to control
[29] = target: Dual specificity protein kinase CLK1 (Homo sapiens) (UniProt P49759); assay: Inhibition of CLK1 (unknown origin) at 1 uM by mobility shift microfluidics platform based assay relative to control
[30] = target: Tyrosine-protein kinase SYK (Homo sapiens) (UniProt P43405); assay: Inhibition of SYK (unknown origin) at 1 uM by mobility shift microfluidics platform based assay relative to control
[31] = target: Mitogen-activated protein kinase kinase kinase kinase 2 (Homo sapiens) (UniProt Q12851); assay: Inhibition of MAP4K2 (unknown origin) at 1 uM by mobility shift microfluidics platform based assay relative to control
Mitogen-activated protein kinase kinase kinase kinase 2 (Homo sapiens), sequence (Q12851 whole entry): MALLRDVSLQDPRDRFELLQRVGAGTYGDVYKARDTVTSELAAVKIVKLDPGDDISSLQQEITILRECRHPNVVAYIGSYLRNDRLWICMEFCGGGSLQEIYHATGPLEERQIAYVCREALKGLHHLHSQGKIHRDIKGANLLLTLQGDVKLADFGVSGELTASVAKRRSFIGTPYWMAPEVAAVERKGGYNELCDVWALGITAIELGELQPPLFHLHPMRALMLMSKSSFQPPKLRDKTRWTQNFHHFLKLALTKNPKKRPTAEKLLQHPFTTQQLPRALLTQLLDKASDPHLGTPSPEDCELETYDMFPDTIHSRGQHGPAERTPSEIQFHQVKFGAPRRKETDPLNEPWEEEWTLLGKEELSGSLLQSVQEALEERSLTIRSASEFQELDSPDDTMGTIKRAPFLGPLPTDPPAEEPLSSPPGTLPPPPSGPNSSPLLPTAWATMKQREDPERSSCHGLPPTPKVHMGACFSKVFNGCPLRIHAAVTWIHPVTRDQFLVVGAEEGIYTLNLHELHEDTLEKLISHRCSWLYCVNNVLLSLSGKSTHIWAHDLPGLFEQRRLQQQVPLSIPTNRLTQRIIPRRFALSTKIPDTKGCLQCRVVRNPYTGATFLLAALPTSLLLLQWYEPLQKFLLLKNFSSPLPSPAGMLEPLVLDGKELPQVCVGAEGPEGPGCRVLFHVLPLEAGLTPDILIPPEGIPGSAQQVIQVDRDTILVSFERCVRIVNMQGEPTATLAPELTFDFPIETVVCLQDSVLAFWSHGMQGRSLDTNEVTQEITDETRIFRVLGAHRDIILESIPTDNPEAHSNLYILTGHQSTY

[32] = target: Interleukin-1 receptor-associated kinase 1 (Homo sapiens) (UniProt P51617); assay: Inhibition of IRAK1 (unknown origin) at 1 uM by mobility shift microfluidics platform based assay relative to control
[33] = target: Protein kinase C beta type (Homo sapiens) (UniProt P05771); assay: Inhibition of PKC-beta1 (unknown origin) at 1 uM by mobility shift microfluidics platform based assay relative to control
Protein kinase C beta type (Homo sapiens), sequence (P05771 2-671 limits assumed): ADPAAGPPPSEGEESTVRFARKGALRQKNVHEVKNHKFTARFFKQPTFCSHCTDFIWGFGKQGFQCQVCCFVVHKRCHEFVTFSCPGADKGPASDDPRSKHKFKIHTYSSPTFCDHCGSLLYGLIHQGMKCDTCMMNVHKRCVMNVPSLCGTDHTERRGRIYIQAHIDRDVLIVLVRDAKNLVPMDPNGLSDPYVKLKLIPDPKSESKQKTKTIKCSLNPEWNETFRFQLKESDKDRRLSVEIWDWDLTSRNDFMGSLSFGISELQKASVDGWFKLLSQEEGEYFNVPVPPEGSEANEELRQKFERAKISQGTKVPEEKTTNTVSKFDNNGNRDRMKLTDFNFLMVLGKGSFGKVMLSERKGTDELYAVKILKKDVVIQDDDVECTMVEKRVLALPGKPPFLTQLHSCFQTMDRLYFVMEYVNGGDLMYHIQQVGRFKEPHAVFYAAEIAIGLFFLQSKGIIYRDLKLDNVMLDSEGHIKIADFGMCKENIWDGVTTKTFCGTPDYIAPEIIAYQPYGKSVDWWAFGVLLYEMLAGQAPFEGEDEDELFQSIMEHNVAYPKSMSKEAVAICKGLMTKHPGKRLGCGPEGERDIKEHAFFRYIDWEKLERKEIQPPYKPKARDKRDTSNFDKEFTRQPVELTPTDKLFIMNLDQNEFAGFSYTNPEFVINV

[34] = target: Homeodomain-interacting protein kinase 3 (Homo sapiens) (UniProt Q9H422); assay: Inhibition of HIPK3 (unknown origin) at 1 uM by mobility shift microfluidics platform based assay relative to control
Homeodomain-interacting protein kinase 3 (Homo sapiens), sequence (Q9H422 whole entry, looked up): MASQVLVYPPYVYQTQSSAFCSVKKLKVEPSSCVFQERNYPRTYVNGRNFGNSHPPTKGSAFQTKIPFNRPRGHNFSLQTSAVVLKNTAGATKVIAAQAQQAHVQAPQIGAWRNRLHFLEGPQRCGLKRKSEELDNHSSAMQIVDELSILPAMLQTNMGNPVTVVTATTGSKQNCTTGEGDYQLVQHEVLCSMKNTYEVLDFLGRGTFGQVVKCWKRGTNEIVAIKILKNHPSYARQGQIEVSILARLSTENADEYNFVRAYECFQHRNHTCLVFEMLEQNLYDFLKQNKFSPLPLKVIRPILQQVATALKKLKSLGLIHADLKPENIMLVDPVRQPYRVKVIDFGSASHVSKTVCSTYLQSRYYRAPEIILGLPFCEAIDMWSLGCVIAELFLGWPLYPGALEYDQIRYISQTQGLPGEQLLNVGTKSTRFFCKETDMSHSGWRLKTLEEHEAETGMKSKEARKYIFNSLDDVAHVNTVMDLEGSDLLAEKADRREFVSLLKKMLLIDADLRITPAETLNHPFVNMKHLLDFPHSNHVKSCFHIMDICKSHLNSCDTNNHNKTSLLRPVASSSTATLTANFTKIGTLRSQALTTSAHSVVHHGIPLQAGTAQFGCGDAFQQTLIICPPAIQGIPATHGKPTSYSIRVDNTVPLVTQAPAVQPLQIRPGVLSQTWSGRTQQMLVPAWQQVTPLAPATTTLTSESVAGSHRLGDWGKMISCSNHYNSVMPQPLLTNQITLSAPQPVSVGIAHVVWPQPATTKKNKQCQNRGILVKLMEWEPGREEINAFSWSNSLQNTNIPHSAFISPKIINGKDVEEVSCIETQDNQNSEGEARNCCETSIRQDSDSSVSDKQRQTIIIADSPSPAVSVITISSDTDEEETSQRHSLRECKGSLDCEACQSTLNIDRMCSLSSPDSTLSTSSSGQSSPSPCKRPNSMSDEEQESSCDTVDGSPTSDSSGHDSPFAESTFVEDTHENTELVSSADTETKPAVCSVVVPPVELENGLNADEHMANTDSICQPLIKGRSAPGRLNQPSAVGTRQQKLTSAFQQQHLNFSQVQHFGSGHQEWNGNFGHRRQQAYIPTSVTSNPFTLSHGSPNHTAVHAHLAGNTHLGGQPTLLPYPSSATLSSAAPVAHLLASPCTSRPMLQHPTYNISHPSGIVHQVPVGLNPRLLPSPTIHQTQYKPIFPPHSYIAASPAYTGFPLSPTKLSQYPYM

| Compound | inhibition [1] [%] | inhibition [2] [%] | inhibition [3] [%] | inhibition [4] [%] | inhibition [5] [%] | inhibition [6] [%] | inhibition [7] [%] | inhibition [8] [%] | inhibition [9] [%] | inhibition [10] [%] | inhibition [11] [%] | inhibition [12] [%] | inhibition [13] [%] | inhibition [14] [%] | inhibition [15] [%] | inhibition [16] [%] | inhibition [17] [%] | inhibition [18] [%] | inhibition [19] [%] | inhibition [20] [%] | other results |
| --- | --- | --- | --- | --- | --- | --- | --- | --- | --- | --- | --- | --- | --- | --- | --- | --- | --- | --- | --- | --- | --- |
| CC(C)n1nc(C#Cc2cccc(NC(=O)c3cccc(C(F)(F)F)c3)c2)c2c(N)ncnc21 | 17 | 5 | 2 | 7 | 1 | -2 | 98 | 13 | 77 | 0 | 2 | 0 | -3 | -8 | 37 | 1 | 1 | 22 | 118 | 100 | inhibition [21]: 7%; inhibition [22]: 0%; inhibition [23]: 2%; inhibition [24]: -4%; inhibition [25]: 1%; inhibition [26]: 22%; inhibition [27]: 27%; inhibition [28]: 1%; inhibition [29]: 2%; inhibition [30]: -4%; inhibition [31]: 67%; inhibition [32]: 28%; inhibition [33]: -3%; inhibition [34]: 0% |
| CC(C)n1nc(C#Cc2cccc3cc(-c4cccc(C(F)(F)F)c4)ncc23)c2c(N)ncnc21 | 17 | 6 | 1 | 10 | 2 | -2 | 96 | 3 | 3 | -2 | 3 | 2 | 10 | 5 | 33 | 5 | 0 | 2 | 101 | 90 | inhibition [21]: 10%; inhibition [22]: 2%; inhibition [23]: 2%; inhibition [24]: 3%; inhibition [25]: 1%; inhibition [26]: 2%; inhibition [27]: 8%; inhibition [28]: 5%; inhibition [29]: -1%; inhibition [30]: 6%; inhibition [31]: 24%; inhibition [32]: -3%; inhibition [33]: 2%; inhibition [34]: -1% |
